Data set [1] relates to C. neoformans var grubii, KN99. As to the kind of experiment: Inhibition of C. neoformans growth, limiting dilution assay (MIC). Conditions: for MIC80: KN99α, minimal concentration inhibiting 80% of growth relative to vehicle; for inhibition of C. neoformans growth: YNB-02+1% DMSO at 35° C., at 15 and 60 μM; for activity against C. neoformans (in words): MIC assay. Format: cell-based. As for the experimental part:
Strains and media. All inhibition assays were performed with C. neoformans var grubii, KN99 (serotype A, MATα; kindly provided by Jennifer Lodge). Two clinical strains of C. neoformans var grubii, serotype A, were kindly provided by Tamara Doering and Andre Spec. […] Each assay was done in triplicate and all values are the average of two or more independent assays. The data are presented as the average cell density as a percent of DMSO-only treated cells. […] However, these conditions are unlike conditions encountered by C. neoformans in mammalian infections, where nutrients are limited, and the pH and temperature are higher than in YPD media. The cryptococcal stress response to low glucose and high pH and temperature may alter its susceptibility to the inhibitors. It is also possible that the enzymes targeted by the inhibitors may render the cell temperature sensitive when inhibited. To better mimic growth in mammals, growth was tested without shaking in nutrient-limited media at 35° C. […] However, as the nutrient-limited media and higher temperature is more similar to mammalian cell growth conditions, these conditions were used for all further assays. […] All values were measured at least two times in independent experiments and the average MIC is reported.

Data set [2] is described as follows: Cytotoxicity in hepatoma cells (MTS). Conditions: human, HepDES19 cells. As for the experimental part: (§1) HepDES19 cells (1.0×10^4 cells per well) were seeded in 96-well plates and incubated in DMEM with 10% fetal bovine serum (FBS) plus 1% penicillin and streptomycin, 1% nonessential amino acids, and 1% glutamine. The compounds were diluted in the medium at concentrations ranging from 0.78 to 100 μM plus 1% DMSO and added to the cells 48 hours after plating, with each concentration tested in triplicate. Cells were incubated with the compound for 72 hours and cytotoxicity was measured using a mitochondrial metabolic assay with MTS (Promega). The data were transformed to log[inhibitor] and fit to a 4-variable slope curve using GraphPad Prism (v6, www.graphpad.com).
(§2) Three days later, the MTS reagent was added for 90 minutes prior to terminating the incubation period and reading the OD480.

The subject of a further data set is KN99α cells. As to the kind of experiment: Growth inhibition in YPD+1% DMSO at 25° C. In kind it is cell-based, C. neoformans. Conditions: at 60 μM. As for the experimental part:
FIGS. 5A & 5B. Inhibition of KN99α cells by β-thujaplicinol and β-thujaplicin under conditions (FIG. 5A) YPD at 25° C. and (FIG. 5B) YNB-02 at 35° C.
An assay was developed that could cheaply and reproducibly measure inhibition of C. neoformans growth using a 96-well format. C. neoformans growth was initially tested in YPD versus YPD+1% DMSO at 25° C. with shaking for 24 and 48 hours. […] However, these conditions are unlike conditions encountered by C. neoformans in mammalian infections, where nutrients are limited, and the pH and temperature are higher than in YPD media. The cryptococcal stress response to low glucose and high pH and temperature may alter its susceptibility to the inhibitors. It is also possible that the enzymes targeted by the inhibitors may render the cell temperature sensitive when inhibited. To better mimic growth in mammals, growth was tested without shaking in nutrient-limited media at 35° C. First, the cell culture media, RPMI-1640+0.4% glucose+1% DMSO (Sigma) as defined by National Committee for Clinical Laboratory Standards (NCCLS) was tested for anti-fungal susceptibility testing. However, the cells grew very poorly under these conditions. […] (FIG. 5A). However, as the nutrient-limited media and higher temperature is more similar to mammalian cell growth conditions, these conditions were used for all further assays.

In a further data set the test system is HepDES19 cells. As to the kind of experiment: Cytotoxicity in hepatoma cells (MTS). Conditions: 72 hours, MTS. As for the experimental part:
as §1, §2

A further data set concerns Wild-type KN99α. Nature of the data set: Screening of 1-Hydroxy-1,8-naphthyridin-2(1H)-one (HNO) compounds for growth inhibition. Format: cell-based, C. neoformans. Conditions: Cryptococcus neoformans; growth inhibited >80%. Here is the method: FIG. 1. Results from screening 8 napthyridinone derivatives. Wild-type KN99α at a starting density of 0.0005 was treated with the compounds at 4 μM, 15 μM, and 60 μM in nutrient-limiting media (YNB, pH 7)+1% DMSO at 35° C. for 48 hours. Bars represent the average cell density of at least three replicates as percent of untreated cells.
Eight compounds in the 1-Hydroxy-1,8-naphthyridin-2(1H)-one (HNO) chemical family were also tested. Three compounds, #149, #153 and #154, inhibited growth of C. neoformans >80% with MICs of ˜10 μM, ˜4 μM and ˜20 μM respectively.

Setting [3] is: Cryptococcus neoformans, YNB-02+1% DMSO, 35° C., 48 hours.
Where [4] appears, read: CC50, HepDES19 cells, 72 hours, MTS.
Where [5] appears, read: YNB-02+1% DMSO, 35° C., 48 hours.

The text below walks through data of patent US10980754B2, “Anti-fungal compounds” (SAINT LOUIS UNIVERSITY, priority 2016, dated 2021).

By MIC80 is commonly meant an inhibitory concentration at the 80% level, which refers to growth in some studies and to a panel of isolates in others. Low values mean greater potency, high ones weaker potency. In general, CC50 refers to the concentration giving 50% cytotoxicity. Read a high CC50 as better tolerance by the cells. As usually defined, the MIC is the lowest concentration that inhibits growth of the organism. Lower therefore signals inhibition by little substance.

In brackets after ≈: the same amount, converted by molar mass. Entries after “also recorded” stand apart in the source; their conditions may differ.

In turn, `CC(C)c1cccc(=O)c(O)c1` [Compound 47, β-thujaplicin] showed an MIC80 in data set [1] (setting [3]) of 21 µM (≈ 3.45 µg/mL). The “inhibition of C. neoformans growth” value in data set [1] is reported as “some inhibition”; in the data set on KN99α cells, “almost completely inhibited”. This compound also yielded a half-maximal cytotoxic concentration (CC50) at 72 h in data set [2] (setting [4]) of 66.5 µM.
Consider Purpurogallin [Compound 195], for which, in data set [1] (setting [5]), the MIC80 is reported as 50 µM. Further, the “activity against C. neoformans (in words)” value in data set [1] is listed as “largely ineffective”. The compound further yielded a CC50 in the data set on HepDES19 cells of 92 µM.
The compound `CC(C)c1ccc(O)c(=O)c(O)c1` [Compound 46, β-thujaplicinol] registered an MIC80 in data set [1] (setting [3]) of 8 µM (≈ 1.44 µg/mL). Moreover, the MIC in data set [1] (setting [3]) was at most 15 µM. Besides, the “inhibition of C. neoformans growth” value in data set [1] was “some inhibition”; in the data set on KN99α cells it was “almost completely inhibited”. The compound further came in with a CC50 at 72 h in data set [2] (setting [4]) of 23 µM.
In the data set with Wild-type KN99α, `O=c1cc(-c2ccccc2)c2cccnc2n1O` [Compound 154] came in with an MIC of about 20 µM (≈ 4.76 µg/mL).
For the compound `COCc1cc(O)c(=O)c(O)c(C(=O)OC)c1C(=O)OC` [Compound 108], the MIC80 in data set [1] (setting [3]) came out at 50 µM (≈ 14.9 µg/mL). The CC50 at 72 h in data set [2] (setting [4]) stood at 90.5 µM.
On to `COC(=O)c1c2c(cc(O)c(=O)c1O)COC2=O` [Compound 280, Methyl 5,7-dihydroxy-3,6-dioxo-3,6-dihydro-1H-cyclohepta[c]furan-4-carboxylate], for which the MIC80 in data set [1] (setting [3]) is 50 µM (≈ 12.6 µg/mL). This compound also gave a CC50 at 72 h in data set [2] (setting [4]) of 66 µM.
The matching figures for `O=c1c(O)ccc(-c2ccccc2)cc1O` [Compound 262, 2,7-dihydroxy-4-phenylcyclohepta-2,4,6-trien-1-one]: 18 µM (≈ 3.86 µg/mL) and 96 µM.
In data set [1] (setting [3]), `Cc1cc(O)c(=O)c(O)cc1C(=O)c1cccs1` [Compound 308, 4-(thiopene-2-carbonyl)-2,7-dihydroxy-5-methylcyclohepta-2,4,6-trien-1-one] came in with an MIC80 of 11 µM (≈ 2.89 µg/mL). The compound also gave a CC50 at 72 h in data set [2] (setting [4]) of 24 µM.
As to `CC(=O)c1cc(O)c(=O)c(O)cc1C` [Compound 110], in data set [1] (setting [3]), the MIC80 amounted to 50 µM (≈ 9.71 µg/mL) and the MIC was at least 50 µM. In data set [2] (setting [4]), this compound returned a CC50 at 72 h of 19 µM.
`CC(C)c1ccc(O)c(=O)cc1` [Compound 48, γ-thujaplicin]: in data set [1] (setting [3]), the MIC80 is 8 µM (≈ 1.31 µg/mL). This compound came in with a CC50 at 72 h in data set [2] (setting [4]) of 45 µM.
In turn, `O=c1cc(Cc2ccc(Br)cc2)c2cccnc2n1O` [Compound 149] yielded an MIC in the data set on Wild-type KN99α of about 10 µM (≈ 3.31 µg/mL).
For `Cc1ccc(C(=O)Nc2cccccc2=O)cc1` [Compound 60], the MIC80 in data set [1] (setting [3]) stood at 50 µM (≈ 12 µg/mL). Besides, the CC50 at 72 h in data set [2] (setting [4]) was over 100 µM.
Compound `NCc1cccc(-c2ccc(Cc3cc(=O)n(O)c4ncccc34)cc2)c1` [Compound 153] displayed an MIC in the data set on Wild-type KN99α of about 4 µM (≈ 1.43 µg/mL).
With `Cc1cc(O)c(=O)c(O)cc1C(=O)c1ccc2ccccc2c1` [Compound 315, 4-(2-naphthoyl)-2,7-dihydroxy-5-methylcyclohepta-2,4,6-trien-1-one], in data set [1] (setting [3]), the MIC80 is 24 µM (≈ 7.35 µg/mL). The compound further came in with a CC50 at 72 h in data set [2] (setting [4]) of 17 µM.
In data set [1] (setting [3]), `COc1cc(C)c(C(=O)c2ccccc2)c(C(=O)c2ccccc2)c(O)c1=O` [Compound 317, (7-hydroxy-5-methoxy-3-methyl-6-oxocyclohepta-2,4,7-triene-1,2-diyl) bis (phenyl methanone)] returned an MIC80 of 50 µM (≈ 18.7 µg/mL). In data set [1], the “activity against C. neoformans (in words)” value is reported as “little activity; also recorded: no activity”. In data set [2] (setting [4]), this compound registered a cytotoxic concentration (CC50) at 72 h of over 100 µM.
`COC(=O)c1c(C)cc(O)c(=O)c(O)c1C(=O)OC` [Compound 106]: the MIC80 in data set [1] (setting [3]) amounted to 41 µM (≈ 11 µg/mL). Half-maximal cytotoxicity in data set [2] (setting [4]) (CC50 at 72 h) was put at 24.5 µM.
Regarding `Cc1ccc(CSc2cccccc2=O)cc1` [Compound 365], the minimum inhibitory concentration (MIC) in data set [1] (Cryptococcus neoformans, Table 3, similar methods to Table 2) is over 50 µM. This compound showed a CC50 at 72 h in data set [2] (CC50, Table 3, similar methods to Table 2) of over 100 µM.
In data set [1] (setting [3]), `O=C(Oc1cccccc1=O)c1ccc([N+](=O)[O-])cc1` [Compound 51, tropolone p-nitrobenzoate] came in with an MIC80 of 24 µM (≈ 6.51 µg/mL). This compound also displayed a CC50 at 72 h in data set [2] (setting [4]) of over 100 µM.
In data set [1] (setting [3]), `O=c1cccccc1O` [Compound 53, Tropolone] had an MIC80 of 24 µM (≈ 2.93 µg/mL) and an MIC of 24 µM (≈ 2.93 µg/mL). Half-maximal cytotoxicity in data set [2] (setting [4]) (CC50 at 72 h) was put at 100 µM.
With `Cc1cc(O)c(=O)c(O)cc1C(=O)C1CC1` [Compound 310, 4-(cyclopropanecarbonyl)-2,7-dihydroxy-5-methylcyclohepta-2,4,6-trien-1-one], in data set [1] (setting [3]), the MIC80 stood at 11 µM (≈ 2.42 µg/mL). This compound also gave a CC50 at 72 h in data set [2] (setting [4]) of 35 µM.
In data set [1] (setting [3]), `Cc1ccc(S(=O)(=O)Oc2cccccc2=O)cc1` [Compound 61] had an MIC80 of 41 µM (≈ 11.3 µg/mL). Moreover, the CC50 at 72 h worked out at 30.5 µM in data set [2] (setting [4]) and 30.5 µM in data set [2] (CC50, HepDES19, MTS).
For the compound `Cc1cc(O)c(=O)c(O)cc1C(=O)c1ccccc1O` [Compound 311, 4-(2-hydroxybenzoyl)-2,7-dihydroxy-5-methylcyclohepta-2,4,6-trien-1-one], in data set [1] (setting [3]), the MIC80 came out at 15 µM (≈ 4.08 µg/mL). For the same compound, the CC50 at 72 h in data set [2] (setting [4]) was found to be 20 µM.
On the same counts, the results for `O=c1c(O)ccc(-c2ccc(-c3ccccc3)cc2)cc1O` [Compound 264, 4-([1,1′-biphenyl]-4-yl)-2,7-dihydroxycyclohepta-2,4,6-trien-1-one] are 35 µM (≈ 10.2 µg/mL) and 28 µM.
For `Cc1cc(O)c(=O)c(O)cc1C(=O)C1CCCCC1` [Compound 120], the MIC80 in data set [1] (setting [3]) was found to be 12 µM (≈ 3.15 µg/mL). For the same compound, the CC50 at 72 h in data set [2] (setting [4]) came out at 21.5 µM.
The matching figures for `O=C(Oc1cccccc1=O)c1ccc(Cl)cc1` [Compound 63]: 17 µM (≈ 4.43 µg/mL) and 100 µM.
`O=Nc1ccc(O)c(=O)cc1` [Compound 50, 5-nitrosotropolone] gave an MIC80 in data set [1] (setting [5]) of 24 µM (≈ 3.63 µg/mL). Further, in the data set on HepDES19 cells, half-maximal cytotoxicity (CC50) was put at 17.5 µM.
Regarding `Cc1cc(O)c(=O)c(O)cc1C(=O)c1ccccc1` [Compound 111], the MIC80 in data set [1] (setting [3]) worked out at 36 µM (≈ 9.23 µg/mL). For the same compound, the CC50 at 72 h in data set [2] (setting [4]) amounted to 26.3 µM.
The matching figures for `O=C(Nc1ccc(O)c(=O)cc1)c1ccccc1` [Compound 52]: 50 µM (≈ 12.1 µg/mL) and over 100 µM.
In data set [1] (setting [3]), `Cc1cc(O)c(=O)c(O)cc1-c1ccc([N+](=O)[O-])cc1` [Compound 112] returned an MIC80 of 49 µM (≈ 13.4 µg/mL). This compound also came in with a CC50 at 72 h in data set [2] (setting [4]) of 74 µM.
In turn, `O=C(Oc1cccccc1=O)c1ccccc1Cl` [Compound 282] showed an MIC80 in data set [1] (setting [3]) of 36 µM (≈ 9.38 µg/mL). In the data set with HepDES19 cells, this compound gave a CC50 of 96.5 µM.
